Assays:
non-human primate iPSCs = conditions: Gori et al. Blood 2012; cited from earlier work
[1] = tested on: H9 hESC-derived non-adherent hematopoietic progenitor cells; test: Hematopoietic colony forming unit (CFU) assay (Example 1); type: cell-based, human
Protocol: FIG. 5A. H9 hESCs were differentiated as spin EB exposed to Stage I mesodermal induction media for 6 days and transferred to hemato-endothelial induction media with either DMSO, 1 μM SR-1, or 10 nM TCDD treatment for an additional 6 days. On day 12 of total differentiation, 50,000 non-adherent cells were obtained in each treatment group and seeded in Methocult H4436. Following 14 days of growth, colony-forming units (CFUs) were quantified and scored based on morphology. Data are represented as number of CFUs per 5×10^4 cells. FIG. 5B. Distribution of CFU morphology for DMSO-, SR-1-, and TCDD-treated H9 hESCs. *p<0.05 as compared to DMSO-treated H9 hESC (Student's t-test) and represent an average of three biological replicates with error bars representing SEM. CFU-GEMM: Colony-Forming Unit Granulocyte/Erythrocyte/Macrophage/Megakaryocyte; CFU-M: Colony-Forming Unit Macrophage; CFU-GM: Colony-Forming Unit-Granulocyte/Macrophage; CFU-E: Colony-Forming Unit Erythroid; BFU-E: Burst-Forming Unit-Erythroid.
Non-adherent, differentiated hematopoietic progenitor cells were harvested following 6 days growth as spin-EBs in Stage I conditions, followed by an additional 6 days growth in Stage II conditions. […] Plates were incubated in a 37° C. in a humidified atmosphere containing 5% CO2 for 14 days and were subsequently scored.

Question: What does the source list for `CC(C)n1cnc2c(NCCc3ccc(O)cc3)nc(-c3csc4ccccc34)nc21` [SR-1, StemReginin-1]?
Answer: kinetics or quantity of CD34+ or CD34+CD31+ cells (non-human primate iPSCs): no differences; phenotypic CD34+CD45+ cells (non-human primate iPSCs): increase; total number of colony-forming units (CFUs) (non-human primate iPSCs): did not enhance; increase in total number of colonies relative to DMSO-treated control cells ([1]; non-adherent cells harvested at Day 12, 1 μM SR-1): 4 fold; proportion of CFU-M and CFU-GM ([1]; non-adherent cells harvested at Day 12, 1 μM SR-1, relative to DMSO): increased proportion
